The values below come from ChEMBL document CHEMBL1201862, “PubChem BioAssay data set” (2004).

Experiment in all cases: inhibition of tumour cell growth, NCI panel, 48 h
In assay [1] the test system is 786-0.
The subject of assay [2] is A498.
Assay [3] concerns COLO 205.
Assay [4] has as its system DU-145.
Assay [5] deals with HOP-92.
The test system of assay [6] is HT-29.
For assay [7], the system named is M14.
The subject of assay [8] is MCF7.
In assay [9] the test system is MDA-MB-231.
The subject of assay [10] is NCI-H23.
In assay [11] the test system is OVCAR-4.
In assay [12] the test system is OVCAR-8.
For assay [13], the system named is RPMI-8226.
Assay [14] deals with SK-OV-3.
The test system of assay [15] is SR.
The subject of assay [16] is SW-620.
The test system of assay [17] is U-251.
Assay [18] has as its system UACC-257.
Assay [19] has as its system CAKI-1.
Assay [20] relates to NCI-H522.

Structures are written as SMILES.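 Values below derive from 48-hour exposures of cells grown in 96-well plates, with endpoints linearly interpolated between the two concentrations bracketing the appropriate inhibition level. Here, GI50 denotes the concentration required for 50% inhibition of growth.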 Activity calls are given as the source filed them. Cut-off read from the data, not from the text of the source: active = GI50 up to about 1.1 µM and inactive = higher. Bounds are passed on as bounds.

For the compound `COc1ccc(C2Oc3c(cccc3-c3c(-c4ccc(O)cc4)oc4cc(O)cc(O)c4c3=O)C(=O)C2O)cc1O` (stereo not drawn), the GI50 in assay [1], in [2], in assay [3], in [4], in assay [5] and in assay [6] was > 100 µM (inactive) each time. Moreover, the GI50 in [7], in [8], in [9], in assay [10], in [11] and in assay [12] was > 100 µM (inactive) each time. Moreover, the GI50 in assay [13] is 83.2 µM (inactive); in [14], > 100 µM (inactive); in assay [15], > 100 µM (inactive); in assay [16], > 100 µM (inactive); in [17] it was > 100 µM (inactive); in [18] it was > 100 µM (inactive).
For the compound `COc1cccc(N2N=C3c4ccccc4-n4c(nc5ccccc54)C3C2N)c1` (stereo not drawn), the GI50 in [1], in [2], in [19], in assay [3], in [4] and in assay [5] was > 100 µM (inactive) in each case. Besides, the GI50 in assay [6] was > 100 µM (inactive); in assay [7] it was 34.1 µM (inactive); in assay [8] it was 79.6 µM (inactive); in assay [9], 92.3 µM (inactive); in [10], > 100 µM (inactive); in [20] it was > 100 µM (inactive). For the same compound, the GI50 in assay [11] was > 100 µM (inactive); in [12], > 100 µM (inactive); in assay [13], > 100 µM (inactive); in assay [15], 86.5 µM (inactive); in [16] it was > 100 µM (inactive); in assay [17], > 100 µM (inactive). The GI50 in [18] is > 100 µM (inactive).
Take `c1ccc([P+](CCN2Cc3ccccc3C2)(c2ccccc2)c2ccccc2)cc1`: the GI50 in assay [1] is 8.17 µM (inactive); in assay [2], 18 µM (inactive); in assay [19] it was 38.3 µM (inactive); in assay [3], 1.56 µM (inactive); in assay [4] it was 5.87 µM (inactive); in [5], 1.08 µM (active). Further, the GI50 in assay [6] is 3.52 µM (inactive); in assay [7], 5.36 µM (inactive); in assay [8], 3.59 µM (inactive); in assay [9] it was 3.94 µM (inactive); in assay [10], 5.46 µM (inactive); in [20] it was 2.73 µM (inactive). Further, the GI50 in [12] is 2.32 µM (inactive); in [13] it was 0.051 µM (active); in [14], 20.7 µM (inactive); in [15] it was 4.33 µM (inactive); in assay [16], 4.22 µM (inactive); in assay [17], 2.19 µM (inactive). In addition, in assay [18], the GI50 was 2.35 µM (inactive).
In the case of `Cc1ccc2nc(Cl)c(/C=N/N3C(=O)/C(=C/c4cccc([N+](=O)[O-])c4)N=C3c3ccccc3)cc2c1`, the GI50 in [1] was > 100 µM (inactive); in assay [2], 7.71 µM (inactive); in assay [19], 66.4 µM (inactive); in assay [3], 38.7 µM (inactive); in assay [4] it was > 100 µM (inactive); in [5] it was 46.3 µM (inactive). In addition, the GI50 is 45.3 µM (inactive) in assay [6]; 63.1 µM (inactive) in assay [7]; 20.3 µM (inactive) in [8]; 93.1 µM (inactive) in [9]; 58.7 µM (inactive) in [11]; 72.4 µM (inactive) in assay [12]. For the same compound, the GI50 was 31.3 µM (inactive) in assay [13]; 94.2 µM (inactive) in [14]; 19.8 µM (inactive) in assay [15]; 75.5 µM (inactive) in assay [16]; 89.7 µM (inactive) in [17]; 61.1 µM (inactive) in assay [18].
With `COc1ccc2c(c1)/C(=C\c1c(Cl)nc3sc(C)cn13)C(=O)N2`, the GI50 in assay [1] was 4.22 µM (inactive); in [2] it was 3.7 µM (inactive); in assay [19], 3.37 µM (inactive); in assay [3] it was 1.6 µM (inactive); in assay [4] it was 5.74 µM (inactive); in assay [5] it was 10.6 µM (inactive). Also, the GI50 in assay [6] is 2.41 µM (inactive); in [7], 2.69 µM (inactive); in assay [8] it was 3.52 µM (inactive); in [9] it was 5.65 µM (inactive); in assay [10] it was 4.12 µM (inactive); in assay [20] it was 3.05 µM (inactive). The GI50 in assay [12] was 4.06 µM (inactive); in [13], 2.61 µM (inactive); in assay [14], 4.03 µM (inactive); in assay [15], 0.7 µM (active); in [16] it was 0.826 µM (active); in [17], 3.21 µM (inactive). Moreover, the GI50 in assay [18] is 4.11 µM (inactive).
Consider `O=C(Nc1nnc(-c2c(Cl)c(Cl)c(Cl)c(Cl)c2-c2nc3cc(C(=O)c4ccccc4)ccc3[nH]2)o1)c1ccccc1`, for which the GI50 in [1] is 16.8 µM (inactive); in assay [2] it was 18.2 µM (inactive); in assay [19], 32.3 µM (inactive); in assay [3] it was 12.2 µM (inactive); in [4] it was 17.5 µM (inactive); in assay [5], 15.5 µM (inactive). Also, the GI50 in assay [6] is 23.8 µM (inactive); in assay [7], 15.4 µM (inactive); in assay [8] it was 10.9 µM (inactive); in assay [9] it was 17.7 µM (inactive); in assay [10], 18.9 µM (inactive); in [11], 21 µM (inactive). For the same compound, the GI50 is 26.9 µM (inactive) in [12]; 12.4 µM (inactive) in assay [13]; 18.9 µM (inactive) in [14]; 4.9 µM (inactive) in assay [15]; 19.9 µM (inactive) in assay [16]; 13.6 µM (inactive) in [17]. Further, the GI50 in assay [18] was 23.2 µM (inactive).
In the case of `CSc1c(C(=O)Nc2ccc(Cl)cc2)c(N)n(N)c(=O)c1C#N`, the GI50 was > 100 µM (inactive) in assay [1]; 36 µM (inactive) in assay [2]; 34.2 µM (inactive) in [19]; > 100 µM (inactive) in assay [3]; > 100 µM (inactive) in [4]; > 100 µM (inactive) in assay [6]. Further, the GI50 was 51.6 µM (inactive) in assay [7]; 75.3 µM (inactive) in assay [8]; > 100 µM (inactive) in assay [9]; 61.5 µM (inactive) in assay [10]; 25.7 µM (inactive) in assay [20]; 68.5 µM (inactive) in [11]. The GI50 in assay [12] is 55.2 µM (inactive); in [13] it was 57.4 µM (inactive); in assay [14], > 100 µM (inactive); in assay [15], > 100 µM (inactive); in assay [16], 95.5 µM (inactive); in [17], > 100 µM (inactive). Also, the GI50 in assay [18] was > 100 µM (inactive).
In the case of `Clc1cc(OCC23CC4CC(CC(C4)C2)C3)nc(OCC23CC4CC(CC(C4)C2)C3)n1`, the GI50 in assay [1], in assay [2], in assay [19], in [3], in [4] and in assay [6] was > 100 µM (inactive) each time. Also, the GI50 in [7], in assay [8], in [9], in assay [10], in [20] and in [11] was > 100 µM (inactive) each time. The GI50 in assay [12], in assay [13], in assay [14], in assay [15], in assay [16] and in [17] was > 100 µM (inactive) in each case. The GI50 in assay [18] is > 100 µM (inactive).
Turning to `O=C(O)C[C@@H]1[C@@H](O)[C@@H](O)CN2C(=O)c3ccccc3[C@H]12`, the GI50 in assay [1], in assay [2], in [19], in assay [3], in assay [4] and in [6] was > 100 µM (inactive) each time. Further, the GI50 in [7], in assay [8], in assay [9], in [10], in assay [20] and in assay [11] was > 100 µM (inactive) throughout. For the same compound, the GI50 in [12], in [13], in [14], in assay [15], in assay [16] and in [17] was > 100 µM (inactive) throughout. The GI50 in assay [18] was > 100 µM (inactive).
Consider `O=C(CCCl)NN=C1NCCN1`, for which the GI50 in assay [1], in assay [2], in [3], in [4], in [5] and in [6] was > 100 µM (inactive) each time. The GI50 in [7], in assay [8], in assay [9], in assay [10], in assay [20] and in assay [11] was > 100 µM (inactive) in each case. Further, the GI50 in assay [12], in assay [13], in assay [14], in assay [15], in [16] and in [17] was > 100 µM (inactive) each time. In addition, the GI50 in assay [18] was > 100 µM (inactive).
